Experimental data: patent US20240270762A1, “PENICILLIN-BINDING PROTEIN INHIBITORS” (priority 2021, published 2024)
Values after ≈ are worked out from the molar mass of the structure shown.

Legend:
K. pneumoniae UMM = assay: microbe, parasite or virus in culture; type: cell-based; conditions: Klebsiella pneumoniae, read-out: MIC K. pneumoniae UMM
N. gonorrhoeae WHO L = assay: Liquid broth MIC in Fastidious broth; conditions: Neisseria gonorrhoeae, read-out: Minimum Inhibitory Concentration (MIC), N. gonorrhoeae WHO L
[1] = tested on: N. gonorrhoeae ATCC 49226; assay: Liquid broth MIC in Fastidious broth; conditions: Neisseria gonorrhoeae, ATCC49226, read-out: Minimum Inhibitory Concentration (MIC), N. gonorrhoeae ATCC 49226
E. coli D22 = assay: microbe, parasite or virus in culture; type: cell-based; conditions: Escherichia coli, D22, read-out: MIC E. coli D22
P. aeruginosa ATCC 35151 = assay: microbe, parasite or virus in culture; type: cell-based; conditions: Pseudomonas aeruginosa, ATCC35151, read-out: MIC P. aeruginosa ATCC 35151
N. gonorrhoeae WHO G = assay: Liquid broth MIC in Fastidious broth; conditions: Neisseria gonorrhoeae, read-out: Minimum Inhibitory Concentration (MIC), N. gonorrhoeae WHO G
[2] = target: T1, PBP3 from Escherichia coli (K-12) (Escherichia coli, UniProt P0AD68); assay: Bocillin-FL fluorescence polarization competition binding, E. coli PBP3
T1 construct: made in house
In short: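 Purified PBPs pre-incubated with inhibitor (E. coli PBP3 1.5 μM, 30 min; P. aeruginosa PBP3 0.75 μM, A. baumannii PBP1a 1 μM and PBP3 0.2 μM, 15 min), then Bocillin-FL 0.1 μM (0.05 μM for PBP1a) added; FP read up to 60 min. EC50 = concentration halving bound Bocillin-FL.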

E. coli AG100 = assay: microbe, parasite or virus in culture; type: cell-based; conditions: Escherichia coli, AG100, read-out: MIC E. coli AG100
N. gonorrhoeae WHO X = assay: Liquid broth MIC in Fastidious broth; conditions: Neisseria gonorrhoeae, read-out: Minimum Inhibitory Concentration (MIC), N. gonorrhoeae WHO X
K. pneumoniae 848844 = assay: microbe, parasite or virus in culture; type: cell-based; conditions: Klebsiella pneumoniae, 848844, read-out: MIC K. pneumoniae 848844
N. gonorrhoeae MS11 = assay: Liquid broth MIC in Fastidious broth; conditions: Neisseria gonorrhoeae, MS11, read-out: Minimum Inhibitory Concentration (MIC), N. gonorrhoeae MS11
N. gonorrhoeae WHO M = assay: Liquid broth MIC in Fastidious broth; conditions: Neisseria gonorrhoeae, read-out: Minimum Inhibitory Concentration (MIC), N. gonorrhoeae WHO M
E. coli AG100A = assay: Broth microdilution MIC in CAMHB; type: cell-based; conditions: Escherichia coli, read-out: MIC E. coli AG100A
E. coli 901C = assay: microbe, parasite or virus in culture; type: cell-based; conditions: Escherichia coli, read-out: MIC E. coli 901C

T1 sequence (P0AD68 1-577): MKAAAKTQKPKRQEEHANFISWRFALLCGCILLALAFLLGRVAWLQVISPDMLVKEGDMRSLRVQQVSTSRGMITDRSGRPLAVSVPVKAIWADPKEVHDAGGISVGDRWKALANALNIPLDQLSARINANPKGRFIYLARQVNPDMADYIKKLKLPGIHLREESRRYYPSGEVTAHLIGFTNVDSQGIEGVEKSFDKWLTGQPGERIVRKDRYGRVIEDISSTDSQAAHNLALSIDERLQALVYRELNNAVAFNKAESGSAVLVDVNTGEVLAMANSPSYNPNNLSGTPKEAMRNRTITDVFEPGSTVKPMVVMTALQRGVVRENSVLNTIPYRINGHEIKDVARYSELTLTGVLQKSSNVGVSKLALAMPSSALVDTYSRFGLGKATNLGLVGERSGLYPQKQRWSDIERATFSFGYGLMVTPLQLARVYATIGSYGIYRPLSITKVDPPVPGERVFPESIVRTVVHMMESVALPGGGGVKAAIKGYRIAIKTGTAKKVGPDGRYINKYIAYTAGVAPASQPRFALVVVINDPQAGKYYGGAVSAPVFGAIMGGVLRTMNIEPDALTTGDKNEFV

Structure (SMILES)	MIC (K. pneumoniae UMM)	MIC (N. gonorrhoeae WHO L)	MIC [1]	MIC (E. coli D22)	MIC (P. aeruginosa ATCC 35151)	MIC (N. gonorrhoeae WHO G)	EC50 [2]	MIC (E. coli AG100)	MIC (N. gonorrhoeae WHO X)	MIC (K. pneumoniae 848844)	MIC (N. gonorrhoeae MS11)	MIC (N. gonorrhoeae WHO M)	MIC (E. coli AG100A)	MIC (E. coli 901C)
CC(C)C(=O)NC(C(=O)N[C@H]1Cc2cccc(C(=O)O)c2OB1O)c1ccc(P(=O)(O)O)cc1 (stereo partly drawn) [Example 28, (3R)-2-hydroxy-3-(2-isobutyramido-2-(4-phosphonophenyl)acetamido)-3,4-dihydro-2H-benzo[e][1,2]oxaborinine-8-carboxylic acid]	> 128 µg/mL	16 to 32 µg/mL (≈ 32.6 to 65.3 µM)	16 to 32 µg/mL (≈ 32.6 to 65.3 µM)	32 to 64 µg/mL (≈ 65.3 to 131 µM)	8 to 16 µg/mL (≈ 16.3 to 32.6 µM)	4 to 8 µg/mL (≈ 8.16 to 16.3 µM)	50 to 250 µM	> 128 µg/mL	16 to 32 µg/mL (≈ 32.6 to 65.3 µM)	> 128 µg/mL	16 to 32 µg/mL (≈ 32.6 to 65.3 µM)	4 to 8 µg/mL (≈ 8.16 to 16.3 µM)	> 128 µg/mL	8 to 16 µg/mL (≈ 16.3 to 32.6 µM)
O=C(O)c1cccc2c1OB(O)[C@@H](NC(=O)[C@@H](NC(=O)N1CCNC1=O)c1ccc(P(=O)(O)O)cc1)C2 [Example 39, (R)-2-hydroxy-3-((S)-2-(2-oxoimidazolidine-1-carboxamido)-2-(4-phosphonophenyl)acetamido)-3,4-dihydro-2H-benzo[e][1,2]oxaborinine-8-carboxylic acid]	> 128 µg/mL	16 to 32 µg/mL (≈ 30.1 to 60.1 µM)	1 to 2 µg/mL (≈ 1.88 to 3.76 µM)	32 to 64 µg/mL (≈ 60.1 to 120 µM)	2 to 4 µg/mL (≈ 3.76 to 7.52 µM)	< 1 µg/mL	50 to 250 µM	> 128 µg/mL	16 to 32 µg/mL (≈ 30.1 to 60.1 µM)	> 128 µg/mL	1 to 2 µg/mL (≈ 1.88 to 3.76 µM)	< 1 µg/mL	> 128 µg/mL	2 to 4 µg/mL (≈ 3.76 to 7.52 µM)
O=C(N[C@@H](C(=O)N[C@H]1Cc2cccc(C(=O)O)c2OB1O)c1ccc(P(=O)(O)O)cc1)c1ccc(C(F)(F)F)cn1 (single isomer, unassigned) [Example 193]	> 128 µg/mL	4 to 8 µg/mL (≈ 6.74 to 13.5 µM)	< 1 µg/mL	2 to 4 µg/mL (≈ 3.37 to 6.74 µM)	2 to 4 µg/mL (≈ 3.37 to 6.74 µM)	< 1 µg/mL	< 10 µM	32 to 64 µg/mL (≈ 53.9 to 108 µM)	4 to 8 µg/mL (≈ 6.74 to 13.5 µM)	> 128 µg/mL	< 1 µg/mL	< 1 µg/mL	8 to 16 µg/mL (≈ 13.5 to 27 µM)	< 1 µg/mL
CS(=O)(=O)N1CCC[C@@H]1C(=O)N[C@@H](C(=O)N[C@H]1Cc2cccc(C(=O)O)c2OB1O)c1ccc(P(=O)(O)O)cc1 [Example 35, (R)-2-hydroxy-3-((R)-2-((R)-1-(methylsulfonyl)pyrrolidine-2-carboxamido)-2-(4-phosphonophenyl)acetamido)-3,4-dihydro-2H-benzo[e][1,2]oxaborinine-8-carboxylic acid]	> 128 µg/mL	16 to 32 µg/mL (≈ 26.9 to 53.8 µM)	1 to 2 µg/mL (≈ 1.68 to 3.36 µM)	8 to 16 µg/mL (≈ 13.4 to 26.9 µM)	2 to 4 µg/mL (≈ 3.36 to 6.72 µM)	1 to 2 µg/mL (≈ 1.68 to 3.36 µM)	10 to 50 µM	> 128 µg/mL	16 to 32 µg/mL (≈ 26.9 to 53.8 µM)	> 128 µg/mL	1 to 2 µg/mL (≈ 1.68 to 3.36 µM)	< 1 µg/mL	> 128 µg/mL	8 to 16 µg/mL (≈ 13.4 to 26.9 µM)
CS(=O)(=O)N1CCN(C(=O)NC(C(=O)N[C@H]2Cc3cccc(C(=O)O)c3OB2O)c2ccc(P(=O)(O)O)c(F)c2)C1=O (stereo partly drawn) [Example 12, (3R)-3-(2-(3-fluoro-4-phosphonophenyl)-2-(3-(methylsulfonyl)-2-oxoimidazolidine-1-carboxamido)acetamido)-2-hydroxy-3,4-dihydro-2H-benzo[e][1,2]oxaborinine-8-carboxylic acid]	> 128 µg/mL	< 1 µg/mL	< 1 µg/mL	2 to 4 µg/mL (≈ 3.18 to 6.37 µM)	8 to 16 µg/mL (≈ 12.7 to 25.5 µM)	< 1 µg/mL	< 10 µM	8 to 16 µg/mL (≈ 12.7 to 25.5 µM)	< 1 µg/mL	> 128 µg/mL	< 1 µg/mL	< 1 µg/mL	8 to 16 µg/mL (≈ 12.7 to 25.5 µM)	< 1 µg/mL
CS(=O)(=O)N1CCN(C(=O)N[C@@H](C(=O)N[C@H]2Cc3ccc(F)c(C(=O)O)c3OB2O)c2ccc(P(=O)(O)O)c(F)c2F)C1=O [Example 16, (R)-3-((R)-2-(2,3-difluoro-4-phosphonophenyl)-2-(3-(methylsulfonyl)-2-oxoimidazolidine-1-carboxamido)acetamido)-7-fluoro-2-hydroxy-3,4-dihydro-2H-benzo[e][1,2]oxaborinine-8-carboxylic acid]	> 128 µg/mL	< 1 µg/mL	< 1 µg/mL	8 to 16 µg/mL (≈ 12 to 24.1 µM)	2 to 4 µg/mL (≈ 3.01 to 6.02 µM)	< 1 µg/mL	< 10 µM	> 128 µg/mL	< 1 µg/mL	> 128 µg/mL	< 1 µg/mL	< 1 µg/mL	32 to 64 µg/mL (≈ 48.2 to 96.3 µM)	< 1 µg/mL
CC(=O)N1CCC[C@H]1C(=O)NC(C(=O)N[C@H]1Cc2cccc(C(=O)O)c2OB1O)c1ccc(P(=O)(O)O)cc1 (stereo partly drawn) [Example 65, (3R)-3-(2-((S)-1-acetylpyrrolidine-2-carboxamido)-2-(4-phosphonophenyl)acetamido)-2-hydroxy-3,4-dihydro-2H-benzo[e][1,2]oxaborinine-8-carboxylic acid]	> 128 µg/mL	16 to 32 µg/mL (≈ 28.6 to 57.2 µM)	16 to 32 µg/mL (≈ 28.6 to 57.2 µM)	> 128 µg/mL	8 to 16 µg/mL (≈ 14.3 to 28.6 µM)	16 to 32 µg/mL (≈ 28.6 to 57.2 µM)	> 250 µM	> 128 µg/mL	16 to 32 µg/mL (≈ 28.6 to 57.2 µM)	> 128 µg/mL	16 to 32 µg/mL (≈ 28.6 to 57.2 µM)	4 to 8 µg/mL (≈ 7.15 to 14.3 µM)	> 128 µg/mL	32 to 64 µg/mL (≈ 57.2 to 114 µM)
CN1CCN(C(=O)NC(C(=O)N[C@H]2Cc3cccc(C(=O)O)c3OB2O)c2ccc(P(=O)(O)O)cc2)C1=O (stereo partly drawn) [Example 41, (3R)-2-hydroxy-3-(2-(3-methyl-2-oxoimidazolidine-1-carboxamido)-2-(4-phosphonophenyl)acetamido)-3,4-dihydro-2H-benzo[e][1,2]oxaborinine-8-carboxylic acid]	32 to 64 µg/mL (≈ 58.6 to 117 µM)	1 to 2 µg/mL (≈ 1.83 to 3.66 µM)	< 1 µg/mL	2 to 4 µg/mL (≈ 3.66 to 7.32 µM)	< 1 µg/mL	< 1 µg/mL	< 10 µM	32 to 64 µg/mL (≈ 58.6 to 117 µM)	1 to 2 µg/mL (≈ 1.83 to 3.66 µM)	> 128 µg/mL	< 1 µg/mL	< 1 µg/mL	8 to 16 µg/mL (≈ 14.6 to 29.3 µM)	< 1 µg/mL
CCN1CCN(C(=O)NC(C(=O)N[C@H]2Cc3cccc(C(=O)O)c3OB2O)c2ccc(P(=O)(O)O)c(O)c2)C(=O)C1=O (stereo partly drawn) [Example 21, (3R)-3-(2-(4-ethyl-2,3-dioxopiperazine-1-carboxamido)-2-(3-hydroxy-4-phosphonophenyl)acetamido)-2-hydroxy-3,4-dihydro-2H-benzo[e][1,2]oxaborinine-8-carboxylic acid]	8 to 16 µg/mL (≈ 13.2 to 26.5 µM)	< 1 µg/mL	< 1 µg/mL	2 to 4 µg/mL (≈ 3.31 to 6.62 µM)	< 1 µg/mL	< 1 µg/mL	< 10 µM	8 to 16 µg/mL (≈ 13.2 to 26.5 µM)	< 1 µg/mL	> 128 µg/mL	< 1 µg/mL	< 1 µg/mL	8 to 16 µg/mL (≈ 13.2 to 26.5 µM)	< 1 µg/mL
CC(=O)NC(C(=O)N[C@H]1Cc2cccc(C(=O)O)c2OB1O)c1ccc(P(=O)(O)O)cc1 (stereo partly drawn) [Example 26, (3R)-3-(2-acetamido-2-(4-phosphonophenyl)acetamido)-2-hydroxy-3,4-dihydro-2H-benzo[e][1,2]oxaborinine-8-carboxylic acid]	> 128 µg/mL	16 to 32 µg/mL (≈ 34.6 to 69.2 µM)	16 to 32 µg/mL (≈ 34.6 to 69.2 µM)	32 to 64 µg/mL (≈ 69.2 to 138 µM)	8 to 16 µg/mL (≈ 17.3 to 34.6 µM)	16 to 32 µg/mL (≈ 34.6 to 69.2 µM)	50 to 250 µM	> 128 µg/mL	16 to 32 µg/mL (≈ 34.6 to 69.2 µM)	> 128 µg/mL	16 to 32 µg/mL (≈ 34.6 to 69.2 µM)	4 to 8 µg/mL (≈ 8.66 to 17.3 µM)	32 to 64 µg/mL (≈ 69.2 to 138 µM)	8 to 16 µg/mL (≈ 17.3 to 34.6 µM)
O=C(O)c1cccc2c1OB(O)[C@@H](NC(=O)C(NC(=O)N1CCCC1=O)c1ccc(P(=O)(O)O)cc1)C2 (stereo partly drawn) [Example 57, (3R)-2-hydroxy-3-(2-(2-oxopyrrolidine-1-carboxamido)-2-(4-phosphonophenyl)acetamido)-3,4-dihydro-2H-benzo[e][1,2]oxaborinine-8-carboxylic acid]	32 to 64 µg/mL (≈ 60.2 to 120 µM)	16 to 32 µg/mL (≈ 30.1 to 60.2 µM)	< 1 µg/mL	8 to 16 µg/mL (≈ 15.1 to 30.1 µM)	2 to 4 µg/mL (≈ 3.76 to 7.53 µM)	< 1 µg/mL	10 to 50 µM	> 128 µg/mL	4 to 8 µg/mL (≈ 7.53 to 15.1 µM)	> 128 µg/mL	< 1 µg/mL	< 1 µg/mL	32 to 64 µg/mL (≈ 60.2 to 120 µM)	< 1 µg/mL
